Experimental data taken from patent US20200071361A1, “ENGINEERED ANTIMICROBIAL AMPHIPHILIC PEPTIDES AND METHODS OF USE” (priority 2017, published 2020).
Converted amounts (≈) assume the structure as drawn.

Key:
[1] = tested on: Acinetobacter baumannii ATCC BAA-1797 (MDR); assay: Broth microdilution MIC (Table 2); assay type: cell-based; conditions: ATCCBAA1797, read-out: MIC
Procedure: (§1) Each peptide was formulated in PBS buffer prior to testing. Peptides of SEQ ID NO:5 and SEQ ID NO:8 were brought up in 100% DMSO with 0.002% polysorbate-80 at 1.28 mg/mL (40× the highest final test concentration of 32 mcg/mL). Final test concentration of DMSO was 2.5% in the assay at the first dilution for those two compounds.
(§2) Mueller Hinton II broth (MHB II; BD; Lot Nos. 6258541 and 7143896) was used for MIC testing of aerobic organisms. 0.002% polysorbate 80 (P80) was added to the test medium.
(§3) MIC values were determined using a broth microdilution procedure described by CLSI (1, 3). Automated liquid handlers (Multidrop 384, Labsystems, Helsinki, Finland; Biomek 2000 and Biomek FX, Beckman Coulter, Fullerton Calif.) were used to conduct serial dilutions and liquid transfers.
(§4) To prepare the drug mother plates, which would provide the serial peptide dilutions for the replicate daughter plates, the wells of columns 2-12 of standard 96-well microdilution plates (Costar 3795) were filled with 150 μl of the designated diluent for each row of peptide. The test articles and comparator compounds (300 μl at 40× the highest concentration to be tested) were dispensed into the appropriate wells in column 1. The Biomek 2000 was then used to make 2-fold serial dilutions in the mother plates from column 1 through column 11. The wells of Column 12 contained no drug and served as the organism growth control wells for the assay.
(§5) The daughter plates were loaded with 185 μL per well of MHB II using the Multidrop 384. The daughter plates were completed on the Biomek FX instrument which transferred 5 uL of peptide solution from each well of a mother plate to the corresponding well of each daughter plate in a single step. A standardized inoculum of each test organism was prepared per CLSI methods. The inoculum for each organism was dispensed into sterile reservoirs divided by length (Beckman Coulter), and the Biomek 2000 was used to inoculate the plates. Daughter plates were placed on the Biomek 2000 work surface in reverse orientation so that inoculation took place from low to high drug concentration. The plates were then inoculated with 10 μL of the inoculum resulting in a final cell density of approximately 5×10^5 CFU/mL, per well.
(§6) Plates were stacked 3-4 high, covered with a lid on the top plate, placed in plastic bags, and incubated at 35° C. for 16 to 20 hrs. Following incubation, the microplates were removed from the incubator and viewed from the bottom using a plate viewer. […] The MIC was read and recorded as the lowest concentration of peptide that inhibited visible growth of the organism.

[2] = tested on: Enterococcus faecalis ATCC 29212 (VSE; QC); assay: Broth microdilution MIC (Table 2); assay type: cell-based; conditions: ATCC29212, read-out: MIC
Procedure: as §1, §2, §3, §4, §5, §6

[3] = tested on: Enterococcus faecalis ATCC 700802 (V583 VRE); assay: Broth microdilution MIC (Table 2); assay type: cell-based; conditions: read-out: MIC
Procedure: as §1, §2, §3, §4, §5, §6

[4] = tested on: Enterococcus faecium ATCC 51559 (VRE); assay: Broth microdilution MIC (Table 2); assay type: cell-based; conditions: read-out: MIC
Procedure: as §1, §2, §3, §4, §5, §6

[5] = tested on: Escherichia coli ATCC 25922 (QC); assay: Broth microdilution MIC (Table 2); assay type: cell-based; conditions: ATCC25922
Procedure: as §1, §2, §3, §4, §5, §6

[6] = tested on: Pseudomonas aeruginosa ATCC 27853 (non-MDR; QC); assay: Broth microdilution MIC (Table 2); assay type: cell-based; conditions: ATCC27853, read-out: MIC
Procedure: as §1, §2, §3, §4, §5, §6

[7] = tested on: Staphylococcus aureus ATCC 43300 (MRSA); assay: Broth microdilution MIC (Table 2); assay type: cell-based; conditions: read-out: MIC
Procedure: as §1, §2, §3, §4, §5, §6

[8] = tested on: Staphylococcus aureus NRS382 (USA100; HA-MRSA); assay: Broth microdilution MIC (Table 2); assay type: cell-based; conditions: read-out: MIC
Procedure: as §1, §2, §3, §4, §5, §6

[9] = tested on: Streptococcus pneumoniae ATCC 49619 (QC); assay: Broth microdilution MIC (Table 2); assay type: cell-based; conditions: ATCC49619, read-out: MIC
Procedure: as §1, §2, §3, §4, §5, §6

[10] = tested on: Streptococcus pyogenes ATCC 49399; assay: Broth microdilution MIC (Table 2); assay type: cell-based; conditions: ATCC49399, read-out: MIC
Procedure: as §1, §2, §3, §4, §5, §6

[11] = tested on: Enterobacter spp. isolates (n = 102); assay: Broth microdilution MIC, clinical isolate panel; assay type: cell-based, Enterobacter aerogenes and E. cloacae; conditions: Enterobacter spp. (n = 102)
Procedure: Comparator antibiotics were supplied by Micromyx, and stock solutions were prepared on the first day of testing using solvents recommended by CLSI (1). Stock solutions of all compounds were made at 40× the final testing concentration and stored at −80° C. prior to testing. Information regarding compound source, catalog and lot number, testing concentrations and drug diluent for the comparators and test agent are detailed below in Table 3.
The test organisms evaluated in this study consisted of clinical isolates from the Micromyx Repository and reference isolates from the American Type Culture Collection (ATCC; Manassas, Va.). The clinical isolates were obtained from USA hospitals. Upon initial receipt at Micromyx, the organisms were sub-cultured onto an appropriate agar medium. Following incubation, colonies were harvested from these plates and cell suspensions prepared and frozen at −80° C. with a cryoprotectant. Prior to testing, the isolates were streaked from frozen vials onto Trypticase Soy Agar with 5% sheep blood (Becton Dickenson [BD]; Sparks, Md.; Lot Nos. 7173618, 7166759, 7208688, 72144895, 7228505 and Remel Lenexa, Kans. Lot No. 212574). Plates were incubated at 35° C. overnight.
Mueller Hinton II broth (MHB II; BD; Lot Nos. 6258541 and 7143896) was used for MIC testing of aerobic organisms.
as §3
as §4, with “drug” for “peptide”, “drug.” for “peptide.”
The daughter plates were loaded with 185 μL per well of MHB II using the Multidrop 384. The daughter plates were completed on the Biomek FX instrument which transferred 5 µL of drug solution from each well of a mother plate to the corresponding well of each daughter plate in a single step. […]
Plates were stacked 3-4 high, covered with a lid on the top plate, placed in plastic bags, and incubated at 35° C. for 16 to 20 hrs. […] The MIC was read and recorded as the lowest concentration of drug that inhibited visible growth of the organism. […]

For `C[C@H]1COc2c(N3CCN(C)CC3)c(F)cc3c(=O)c(C(=O)O)cn1c23` [Levofloxacin], the MIC [1] was 0.25 µg/mL (≈ 0.692 µM), the MIC [2] was 1 µg/mL (≈ 2.77 µM) and the MIC [3] was 0.5 µg/mL (≈ 1.38 µM). For the same molecule, the MIC [4] was 16 µg/mL (≈ 44.3 µM), the MIC [5] was 0.015 µg/mL (≈ 0.0415 µM) and the MIC [6] was 1 µg/mL (≈ 2.77 µM). The MIC [7] was 0.25 µg/mL (≈ 0.692 µM), the MIC [8] was 8 µg/mL (≈ 22.1 µM) and the MIC [9] was 1 µg/mL (≈ 2.77 µM). The MIC [10] was 0.5 µg/mL (≈ 1.38 µM) and the “% R (percent of isolates resistant, clinical breakpoints)” value [11] was 4.9%.
